Test results from patent US7320972B2, “4-Biarylyl-1-phenylazetidin-2-ones” (Microbia, Inc., priority 2003, dated 2008).

Tested on: cholesterol absorption (serum 3H-cholesterol)
Experiment: In Vivo Assay of Hypolipidemic Agents using the Rat Cholesterol Absorption Model
Set-up: species or system Sprague-Dawley rats
Settings: peroral, 10 mg/kg (footnote 1), serum 3H-cholesterol vs vehicle control
Method in brief: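 Female Sprague-Dawley rats (150–250 g, 4–6 per group) were fasted overnight and dosed orally with compound in olive oil or vehicle. Thirty minutes later they received 3–5 μCi 3H-cholesterol orally in olive oil, and serum radioactivity was measured at 3 h. % inhibition = 100×(1−Ctest/Cctrl) at a fixed dose; ED50 is the dose giving half-maximal effect.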

With `COc1ccc(-c2ccc([C@@H]3[C@@H](CC[C@H](O)c4ccc(F)cc4)C(=O)N3c3ccc(F)cc3)cc2)cc1` [Example 5, (3R,4S)-1-(4-fluorophenyl)-3-[(3S)-3-(4-fluorophenyl)-3-hydroxypropyl]-4-(4′-methoxybiphenyl-4-yl)azetidin-2-one] the “% inhibition at 10 mg/kg” value was 26^1%.

Same assay, conditions: po, peroral, 1 mg/kg, serum 3H-cholesterol 3 h after cholesterol dose, vs vehicle control

In order of rising inhibition in vivo at 1 mg/kg:
1. O=C1[C@H](CC[C@H](O)c2ccc(F)cc2)[C@@H](c2ccc(-c3cccc(C(F)(F)F)c3)cc2)N1c1ccc(F)cc1 [Example 92, (3R,4S)-1-(4-fluorophenyl)-3-[(3S)-3-(4-fluorophenyl)-3-hydroxypropyl]-4-[3′-(trifluoromethyl)biphenyl-4-yl]azetidin-2-one]  17%
2. O=C1[C@H](CC[C@H](O)c2ccc(F)cc2)[C@@H](c2ccc(-c3cccc(O)c3)s2)N1c1ccccc1 [Example 50, (3R,4S)-3-[(3S)-3-(4-Fluorophenyl)-3-hydroxypropyl]-4-[5-(3-hydroxyphenyl)-2-thienyl]-1-phenylazetidin-2-one]  27%
3. COc1cccc(-c2ccc([C@@H]3[C@@H](CC[C@H](O)c4ccc(F)cc4)C(=O)N3c3ccc(F)cc3)cc2)c1OC [Example 11, (3R,4S)-4-(2′,3′-dimethoxybiphenyl-4-yl)-1-(4-fluorophenyl)-3-[(3S)-3-(4-fluorophenyl)-3-hydroxypropyl]azetidin-2-one]  28%
4. Cc1cccc(-c2ccc([C@@H]3[C@@H](CC[C@H](O)c4ccc(F)cc4)C(=O)N3c3ccc(F)cc3)cc2)c1 [Example 93, (3R,4S)-1-(4-fluorophenyl)-3-[(3S)-3-(4-fluorophenyl)-3-hydroxypropyl]-4-(3′-methylbiphenyl-4-yl)azetidin-2-one]  28%
5. O=C1[C@H](CC[C@H](O)c2ccc(F)cc2)[C@@H](c2ccc(-c3cccc(O)c3)cn2)N1c1ccccc1 [Example 49, (3R,4S)-3-[(3S)-3-(4-Fluorophenyl)-3-hydroxypropyl]-4-[5-(3-hydroxyphenyl)pyridin-2-yl]-1-phenylazetidin-2-one]  30%
6. Nc1cccc(-c2ccc([C@@H]3[C@@H](CC[C@H](O)c4ccc(F)cc4)C(=O)N3c3ccc(F)cc3)cc2)c1 [Example 86, (3R,4S)-4-(3′-aminobiphenyl-4-yl)-1-(4-fluorophenyl)-3-[(3S)-3-(4-fluorophenyl)-3-hydroxypropyl]azetidin-2-one]  35%
7. CN(C)c1cccc(-c2ccc([C@@H]3[C@@H](CC[C@H](O)c4ccc(F)cc4)C(=O)N3c3ccc(F)cc3)cc2)c1 [Example 83, (3R,4S)-4-[3′-(dimethylamino)biphenyl-4-yl]-1-(4-fluorophenyl)-3-[(3S)-3-(4-fluorophenyl)-3-hydroxypropyl]azetidin-2-one]  38%
8. O=C1[C@H](CC[C@H](O)c2ccc(F)cc2)[C@@H](c2ccc(-c3ccc(O)cc3)s2)N1c1ccccc1 [Example 51, (3R,4S)-3-[(3S)-3-(4-Fluorophenyl)-3-hydroxypropyl]-4-[5-(4-hydroxyphenyl)-2-thienyl]-1-phenylazetidin-2-one]  39%
9. COc1ccc(-c2ccc([C@@H]3[C@@H](CC[C@H](O)c4ccc(F)cc4)C(=O)N3c3ccc(F)cc3)cc2)c(OC)c1 [Example 97, (3R,4S)-4-(2′,4′-dimethoxybiphenyl-4-yl)-1-(4-fluorophenyl)-3-[(3S)-3-(4-fluorophenyl)-3-hydroxypropyl]azetidin-2-one]  40%
10. CN(C)c1ccc(-c2ccc([C@@H]3[C@@H](CC[C@H](O)c4ccc(F)cc4)C(=O)N3c3ccc(F)cc3)cc2)cc1 [Example 17, (3R,4S)-4-[4′(dimethylamino)biphenyl-4-yl]-1-(4-fluorophenyl)-3-[(3S)-3-(4-fluorophenyl)-3-hydroxypropyl]azetidin-2-one]  43%
11. COc1cc(OC)cc(-c2ccc([C@@H]3[C@@H](CC[C@H](O)c4ccc(F)cc4)C(=O)N3c3ccc(F)cc3)cc2)c1 [Example 107, (3R,4S)-4-(3′,5′-dimethoxybiphenyl-4-yl)-1-(4-fluorophenyl)-3-[(3S)-3-(4-fluorophenyl)-3-hydroxypropyl]azetidin-2-one]  49%
12. C=Cc1ccc(-c2ccc([C@@H]3[C@@H](CC[C@H](O)c4ccc(F)cc4)C(=O)N3c3ccc(F)cc3)cc2)cc1 [Example 84, (3R,4S)-1-(4-fluorophenyl)-3-[(3S)-3-(4-fluorophenyl)-3-hydroxypropyl]-4-(4′-vinylbiphenyl-4-yl)azetidin-2-one]  51%
13. O=C1[C@H](CC[C@H](O)c2ccc(F)cc2)[C@@H](c2ccc(-c3cccc(OC[C@@H](O)[C@@H](O)[C@H](O)[C@@H](O)CO)c3)cc2)N1c1ccc(F)cc1 [Example 78, 6-O-(4′-{(2S,3R)-1-(4-Fluorophenyl)-3-[(3S)-3-(4-fluorophenyl)-3-hydroxypropyl]-4-oxoazetidin-2-yl}biphenyl-3-yl)-D-glucitol]  51%
14. CCCCOc1cccc(-c2ccc([C@@H]3[C@@H](CC[C@H](O)c4ccc(F)cc4)C(=O)N3c3ccc(F)cc3)cc2)c1 [Example 109, (3R,4S)-4-(3′-butoxybiphenyl-4-yl)-1-(4-fluorophenyl)-3-[(3S)-3-(4-fluorophenyl)-3-hydroxypropyl]azetidin-2-one]  52%
15. CS(=O)(=O)c1ccc(-c2ccc([C@@H]3[C@@H](CC[C@H](O)c4ccc(F)cc4)C(=O)N3c3ccc(F)cc3)cc2)cc1 [Example 8, (3R,4S)-1-(4-fluorophenyl)-3-[(3S)-3-(4-fluorophenyl)-3-hydroxypropyl]-4-[4′-(methylsulfonyl)biphenyl-4-yl]azetidin-2-one]  53%
16. O=C1[C@H](CC[C@H](O)c2ccc(F)cc2)[C@@H](c2ccc(-c3ccc4ccccc4c3)cc2)N1c1ccc(F)cc1 [Example 91, (3R,4S)-1-(4-fluorophenyl)-3-[(3S)-3-(4-fluorophenyl)-3-hydroxypropyl]-4-[4-(2-naphthyl)phenyl]azetidin-2-one]  56%
17. O=C1[C@H](CC[C@H](O)c2ccc(F)cc2)[C@@H](c2ccc(-c3cccc(O[C@H]4O[C@@H](CO)[C@H](O)[C@@H](O)[C@@H]4O)c3)cc2)N1c1ccc(F)cc1 [Example 95, 4′-{(2S,3R)-1-(4-fluorophenyl)-3-[(3S)-3-(4-fluorophenyl)-3-hydroxypropyl]-4-oxoazetidin-2-yl}biphenyl-3-yl β-L-glucopyranoside]  57%
18. O=C1[C@H](CC[C@H](O)c2ccc(F)cc2)[C@@H](c2ccc(-c3ccc(S(=O)(=O)O)cc3)cc2O)N1c1ccccc1 [Example 128, Sodium 4′-{(2S,3R)-3-[(3S)-3-(4-fluorophenyl)-3-hydroxypropyl]-4-oxo-1-phenylazetidin-2-yl}-3′-hydroxybiphenyl-4-sulfonate]  60%
19. O=C1[C@H](CC[C@H](O)c2ccc(F)cc2)[C@@H](c2ccc(-c3cccc(S(=O)(=O)O)c3)cc2)N1c1ccc(F)cc1 [Example 118, 4′-{(2S,3R)-1-(4-fluorophenyl)-3-[(3S)-3-(4-fluorophenyl)-3-hydroxypropyl]-4-oxoazetidin-2-yl}biphenyl-3-sulfonic Acid]  61%
20. O=C1[C@H](CC[C@H](O)c2ccc(F)cc2)[C@@H](c2ccc(-c3cccc([C@@H](O)[C@H]4OC(O)[C@H](O)[C@@H](O)[C@@H]4O)c3)cc2O)N1c1ccccc1 (stereo partly drawn) [Example 74, (6R)-6-C-(4′-{(2S,3R)-3-[(3S)-3-(4-Fluorophenyl)-3-hydroxypropyl]-4-oxo-1-phenylazetidin-2-yl}-3′-hydroxybiphenyl-3-yl)-D-glucopyranose]  67%
21. O=C1[C@H](CC[C@H](O)c2ccc(F)cc2)[C@@H](c2ccc(-c3cccc([C@@H]4O[C@H](CO)[C@@H](O)[C@H](O)[C@H]4O)c3)cc2)N1c1ccccc1 [Example 64, (1S)-1,5-Anhydro-1-(4′-{(2S,3R)-3-[(3S)-3-(4-fluorophenyl)-3-hydroxypropyl]-4-oxo-1-phenylazetidin-2-yl}biphenyl-3-yl)-D-glucitol]  67%
22. CO[C@H]1O[C@H](COc2cccc(-c3ccc([C@@H]4[C@@H](CC[C@H](O)c5ccc(F)cc5)C(=O)N4c4ccc(F)cc4)cc3)c2)[C@@H](O)[C@H](O)[C@H]1O [Example 77, Methyl 6-O-(4′-{(2S,3R)-1-(4-fluorophenyl)-3-[(3S)-3-(4-fluorophenyl)-3-hydroxypropyl]-4-oxoazetidin-2-yl}biphenyl-3-yl)-α-D-glucopyranoside]  70%
23. O=C(O)c1ccc(-c2ccc([C@@H]3[C@@H](CC[C@H](O)c4ccc(F)cc4)C(=O)N3c3ccc(F)cc3)cc2)cc1O [Example 110, 4′-{(2S,3R)-1-(4-fluorophenyl)-3-[(3S)-3-(4-fluorophenyl)-3-hydroxypropyl]-4-oxoazetidin-2-yl}-3-hydroxybiphenyl-4-carboxylic Acid]  72%
24. O=C1[C@H](CC[C@H](O)c2ccc(F)cc2)[C@@H](c2ccc(-c3ccc([C@H]4O[C@@H](CO)[C@H](O)[C@@H](O)[C@@H]4O)cc3)cc2)N1c1ccc(F)cc1 [Example 116, (1R)-1,5-anhydro-1-(4′-{(2S,3R)-1-(4-fluorophenyl)-3-[(3S)-3-(4-fluorophenyl)-3-hydroxypropyl]-4-oxoazetidin-2-yl}biphenyl-4-yl)-L-glucitol]  81%

Tested on: not given
Experiment: not given
Settings: not given

In order of falling melting point:
1. O=C1[C@H](CC[C@H](O)c2ccc(F)cc2)[C@@H](c2ccc(O)c(-c3ccccc3)c2)N1c1ccc(F)cc1 [Example 6, (3R,4S)-1-(4-fluorophenyl)-3-[(3S)-3-(4-fluorophenyl)-3-hydroxypropyl]-4-(6-hydroxybiphenyl-3-yl)azetidin-2-one]  113 °C
2. CS(=O)(=O)c1ccc(-c2ccc([C@@H]3[C@@H](CC[C@H](O)c4ccc(F)cc4)C(=O)N3c3ccc(F)cc3)cc2)cc1 [Example 8, (3R,4S)-1-(4-fluorophenyl)-3-[(3S)-3-(4-fluorophenyl)-3-hydroxypropyl]-4-[4′-(methylsulfonyl)biphenyl-4-yl]azetidin-2-one]  111 °C
3. COc1ccc(-c2ccc([C@@H]3[C@@H](CC[C@H](O)c4ccc(F)cc4)C(=O)N3c3ccc(F)cc3)cc2)cc1 [Example 5, (3R,4S)-1-(4-fluorophenyl)-3-[(3S)-3-(4-fluorophenyl)-3-hydroxypropyl]-4-(4′-methoxybiphenyl-4-yl)azetidin-2-one]  103 °C
4. COc1cccc(-c2ccc([C@@H]3[C@@H](CC[C@H](O)c4ccc(F)cc4)C(=O)N3c3ccc(F)cc3)cc2)c1OC [Example 11, (3R,4S)-4-(2′,3′-dimethoxybiphenyl-4-yl)-1-(4-fluorophenyl)-3-[(3S)-3-(4-fluorophenyl)-3-hydroxypropyl]azetidin-2-one]  101 °C
